Laboratory results published in US10149477B2, “Substituted pyrimidinium compounds for combating animal pests” (BASF SE, priority 2014, dated 2018).

Key:
Assay type in all cases: in vivo
[1] = system: green peach aphid (Myzus persicae); experiment: Green peach aphid, systemic, artificial diet in 96-well microtiter plates; details: 72 h, 3 days, read-out: mortality in comparison with untreated controls
Excerpt: a) For evaluating control of green peach aphid (Myzus persicae) through systemic means the test unit consisted of 96-well-microtiter plates containing liquid artificial diet under an artificial membrane.
The compounds were formulated using a solution containing 75% v/v water and 25% v/v DMSO. Different concentrations of formulated compounds were pipetted into the aphid diet, using a custom built pipetter, at two replications.
After application, 5-8 adult aphids were placed on the artificial membrane inside the microtiter plate wells. The aphids were then allowed to suck on the treated aphid diet and incubated at about 23±1° C. and about 50±5% relative humidity for 3 days. Aphid mortality and fecundity was then visually assessed.

[2] = system: green peach aphid (Myzus persicae); experiment: Green peach aphid, spray on infested bell pepper plants; details: 120 h, sprayed bell pepper plants, after 5 days, read-out: mortality in comparison with untreated controls
Method: (§1) b) The active compounds were formulated by a Tecan liquid handler in 100% cyclohexa-none as a 10,000 ppm solution supplied in tubes. The 10,000 ppm solution was serially diluted in 100% cyclohexanone to make interim solutions. These served as stock solu-tions for which final dilutions were made by the Tecan in 50% acetone:50% water (v/v) into 10 or 20 ml glass vials. A nonionic surfactant (Kinetic®) was included in the solution at a volume of 0.01% (v/v).
(§2) The vials were then inserted into an automated electrostatic sprayer equipped with an atomizing nozzle for application to plants/insects.
Bell pepper plants at the first true-leaf stage were infested prior to treatment by placing heavily infested leaves from the main colony on top of the treatment plants. Aphids were allowed to transfer overnight to accomplish an infestation of 30-50 aphids per plant and the host leaves were removed. The infested plants were then sprayed by an automated electrostatic plant sprayer equipped with an atomizing spray nozzle. The plants were dried in the sprayer fume hood, removed, and then maintained in a growth room under fluorescent lighting in a 24-hr photoperiod at about 25° C. and about 20-40% relative humidity. Aphid mortality on the treated plants, relative to mortality on untreated control plants, was determined after 5 days.

[3] = system: Orchid Thrips (Dichromothrips corbetti); experiment: Orchid thrips, floral-immersion technique; details: dipped orchid flowers, 72 hours after treatment, read-out: mortality in comparison with untreated controls
Method: Dichromothrips corbetti adults used for bioassay were obtained from a colony maintained continuously under laboratory conditions. For testing purposes, the test compound is diluted in a 1:1 mixture of acetone:water (vol:vol), plus 0.01% vol/vol Alkamuls® EL 620 surfactant.
Thrips potency of each compound was evaluated by using a floral-immersion technique. Plastic petri dishes were used as test arenas. All petals of individual, intact orchid flowers were dipped into treatment solution and allowed to dry. Treated flowers were placed into individual petri dishes along with about 20 adult thrips. The petri dishes were then covered with lids. All test arenas were held under continuous light and a temperature of about 28° C. for duration of the assay. After 3 days, the numbers of live thrips were counted on each flower, and along inner walls of each petri dish. The percent mortality was recorded 72 hours after treatment.

[4] = system: Rice Green Leafhopper (Nephotettix virescens); experiment: Rice green leafhopper, sprayed rice seedlings; details: after 72 hours, read-out: mortality in comparison with untreated controls
Method: (§3) Rice seedlings were cleaned and washed 24 hours before spraying. The active compounds were formulated in 50:50 acetone:water (vol:vol), and 0.1% vol/vol surfactant (EL 620) was added. Potted rice seedlings were sprayed with 5 ml test solution, air dried, placed in cages and inoculated with 10 adults. Treated rice plants were kept at about 28-29° C. and relative humidity of about 50-60%. Percent mortality was recorded after 72 hours.

[5] = system: Rice Brown Plant Hopper (Nilaparvata lugens); experiment: Rice brown plant hopper, sprayed rice seedlings; details: after 72 hours, read-out: mortality in comparison with untreated controls
Method: as §3, with “(vol:vol)” for “(vol:vol),”

[6] = system: Cowpea Aphid (Aphis craccivora); experiment: Cowpea aphid, spray on colonized cowpea plants; details: sprayed cowpea plants, after 72 hours, read-out: mortality in comparison with untreated controls
Method: The active compound is dissolved at the desired concentration in a mixture of 1:1 (vol:vol) distilled water: acetone. Surfactant (Kinetic® HV) is added at a rate of 0.01% (vol/vol). The test solution is prepared at the day of use.
Potted cowpea plants were colonized with approximately 30-50 aphids of various stages by manually transferring a leaf tissue cut from infested plant 24 hours before application. Plants were sprayed with the test solutions using a DeVilbiss® hand atom-izer at 20-30 psi (=1.38 to 2.07 bar) after the pest population has been checked. Treat-ed plants are maintained on light carts at about 25-26° C. Percent mortality was assessed after 72 hours.

[7] = system: Cotton Aphid (Aphis gossypii); experiment: Cotton aphid, spray on infested cotton plants; details: 120 h, sprayed cotton plants, after 5 days, read-out: mortality in comparison with untreated controls
Method: as §1, with “The” for “b) The”
as §2
Cotton plants at the cotyledon stage were infested with aphids prior to treatment by placing a heavily infested leaf from the main aphid colony on top of each cotyledon. Aphids were allowed to transfer overnight to accomplish an infestation of 80-100 aphids per plant and the host leaf was removed. The infested plants were then sprayed by an automated electrostatic plant sprayer equipped with an atomizing spray nozzle. The plants were dried in the sprayer fume hood, removed from the sprayer, and then main-tained in a growth room under fluorescent lighting in a 24-hr photoperiod at 25° C. and 20-40% relative humidity. Aphid mortality on the treated plants, relative to mortality on untreated control plants, was determined after 5 days.

[8] = system: vetch aphid (Megoura viciae); experiment: Vetch aphid, broad bean leaf disks in 24-well microtiter plates; details: foliar, 120 h, sprayed leaf disks, 5 days, read-out: mortality in comparison with untreated controls
Method: For evaluating control of vetch aphid (Megoura viciae) through contact or systemic means the test unit consisted of 24-well-microtiter plates containing broad bean leaf disks.
The compounds were formulated using a solution containing 75% v/v water and 25% v/v DMSO. Different concentrations of formulated compounds were sprayed onto the leaf disks at 2.5 μl, using a custom built micro atomizer, at two replications.
After application, the leaf disks were air-dried and 5-8 adult aphids placed on the leaf disks inside the microtiter plate wells. The aphids were then allowed to suck on the treated leaf disks and incubated at about 23+1° C. and about 50+5% relative humidity for 5 days. Aphid mortality and fecundity was then visually assessed.

C[n+]1c([O-])c(-c2ccccc2)c(=O)n2c1SC(c1cnc(Cl)s1)C2 (centres unmarked) [compound 1]
> 75%: mortality at 2500 ppm [1] | mortality at 2500 ppm [2] | mortality at 500 ppm [3] | mortality at 500 ppm [4] | mortality at 500 ppm [5] | mortality at 500 ppm [6] | mortality at 300 ppm [7] | mortality at 2500 ppm [8]
